Reference: patent US9309263B2, “Fused multi-cyclic sulfone compounds as inhibitors of beta-secretase and methods of use thereof” (AMGEN INC., priority 2013, dated 2016)

Columns and labels:
[1] = tested on: Aβ 40 in conditioned medium of cells stably expressing Amyloid Precursor Protein (APP); experiment: In vitro BACE cell-based assay (Aβ 40 sandwich ELISA); conditions: Homo sapiens, HEK293; HEK cells; average IC50
Procedure, shortened: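 APP-expressing cells, 24 h pre-culture in DMEM/10% FBS, treated 24 h with 10-point compound dilutions from 100 or 10 μM top, 0.1% DMSO final. Secreted Aβ40 quantified by sandwich ELISA (pAb40 capture, biotinylated 6E10 detection, europium TRF); IC50 from percent inhibition versus concentration.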

[2] = molecular target: Beta Secretase enzyme (BACE) (Homo sapiens, UniProt P56817); experiment: In vitro enzymatic BACE FRET assay; format: biochemical; conditions: average IC50; read-out: BACE1 FRET assay IC50
Chain of Beta Secretase enzyme (BACE) (P56817 46-501): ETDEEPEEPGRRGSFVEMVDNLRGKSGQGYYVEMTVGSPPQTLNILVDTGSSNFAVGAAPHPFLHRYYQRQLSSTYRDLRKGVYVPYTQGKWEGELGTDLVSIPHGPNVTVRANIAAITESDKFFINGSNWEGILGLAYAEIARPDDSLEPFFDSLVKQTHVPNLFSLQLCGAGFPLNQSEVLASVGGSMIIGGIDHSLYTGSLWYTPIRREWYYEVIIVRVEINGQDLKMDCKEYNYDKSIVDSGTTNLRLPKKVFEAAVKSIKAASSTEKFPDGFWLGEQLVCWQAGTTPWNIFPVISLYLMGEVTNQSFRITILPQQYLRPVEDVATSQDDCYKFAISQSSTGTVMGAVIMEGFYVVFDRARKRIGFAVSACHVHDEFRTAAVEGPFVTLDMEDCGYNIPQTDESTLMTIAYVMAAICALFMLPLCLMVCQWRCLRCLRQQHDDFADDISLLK
Procedure, shortened: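 Enzyme (0.2 nM) pre-incubated 1 h with serially diluted inhibitors in 0.05 M acetate pH 4.2, 10% DMSO, 100 uM genapol. Reaction started with 50 nM fluorophore/quencher peptide FRET substrate, run 1 h, stopped with Tris to neutral pH. Fluorescence read at excitation 488 nm, […].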

[3] = molecular target: Cathepsin D (Cat D) (Homo sapiens, UniProt P07339); experiment: In vitro enzymatic Cathepsin D (Cat D) FRET assay; format: biochemical; conditions: read-out: CatD IC50
Chain of Cathepsin D (Cat D) (P07339 65-412, species assumed): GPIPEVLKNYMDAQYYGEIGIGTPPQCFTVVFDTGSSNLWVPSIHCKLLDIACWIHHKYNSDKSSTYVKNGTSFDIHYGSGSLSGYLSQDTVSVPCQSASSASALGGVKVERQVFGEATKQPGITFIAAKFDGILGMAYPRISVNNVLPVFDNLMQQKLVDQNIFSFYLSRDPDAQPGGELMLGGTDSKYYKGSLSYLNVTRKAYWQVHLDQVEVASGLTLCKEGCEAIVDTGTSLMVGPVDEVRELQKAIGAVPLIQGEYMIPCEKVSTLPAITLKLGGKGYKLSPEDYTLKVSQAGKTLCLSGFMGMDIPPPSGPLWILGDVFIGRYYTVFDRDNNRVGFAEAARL
Procedure, shortened: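 Recombinant CHO-expressed enzyme (9 nM) pre-incubated 1 h with serially diluted inhibitor in 0.05 M citrate pH 3.5, 10% DMSO final, 5 mM CHAPS. Reaction started with 20 nM FRET peptide substrate, run 1 h, stopped with Tris to neutral pH; fluorescence read at ex 500/em 580 nm.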

Row | Structure (SMILES) | IC50 [1] [nM] | IC50 [2] [nM] | IC50 [3] [µM]
1 | CC1(C)C(N)=N[C@]2(C)c3cc(Nc4ncnc5cc(Cl)cnc45)ccc3OCC[C@H]2S1(=O)=O [Example 176, (4aR,11bR)-N^~10^~-(7-chloropyrido[3,2-d]yrimidin-4-yl)-3,3,11b-trimethyl-4a,5,6,11b-tetrahydro-3H-[1]benzoxepino[4,5-b][1,4]thiazine-2,10-diamine 4,4-dioxide] | 11 | 8 | 186
2 | COc1cnc2c(Nc3ccc4c(c3)[C@@]3(C)N=C(N)C(C)(C)S(=O)(=O)[C@@H]3CCO4)ncc(F)c2c1 [Example 177, (4aR,11bR)-N^~10^~-(5-fluoro-3-methoxy-1,7-naphthyridin-8-yl)-3,3,11b-trimethyl-4a,5,6,11b-tetrahydro-3H-[1]benzoxepino[4,5-b][1,4]thiazine-2,10-diamine 4,4-dioxide] | 111 | 18 | 314
3 | Cc1nc(OCC2CC2)cnc1C(=O)Nc1ccc2c(c1)[C@@]1(C)N=C(N)C(C)(C)S(=O)(=O)[C@@H]1CCO2 [Example 178, N-((4aR,11bR)-2-amino-3,3,11b-trimethyl-4,4-dioxido-4a,5,6,11b-tetrahydro-3H-benzo[6,7]oxepino[4,5-b][1,4]thiazin-10-yl)-5-(cyclopropylmethoxy)-3-methylpyrazine-2-carboxamide] | 28 | 10 | 586
4 | CC1(C)C(N)=N[C@]2(C)c3cc(NC(=O)c4ccc(C5CC5)cn4)ccc3OCC[C@H]2S1(=O)=O [Example 179, N-((4aR,11bR)-2-amino-3,3,11b-trimethyl-4,4-dioxido-4a,5,6,11b-tetrahydro-3H-[1]benzoxepino[4,5-b][1,4]thiazin-10-yl)-5-cyclopropyl-2-pyridinecarboxamide] | 35 | 66 | 705
5 | Cc1cc(Cl)cnc1C(=O)Nc1ccc2c(c1)[C@@]1(C)N=C(N)C(C)(C)S(=O)(=O)[C@@H]1C[C@@H](C)O2 [Example 180, N-((4aR,6R,11bR)-2-amino-3,3,6,11b-tetramethyl-4,4-dioxido-4a,5,6,11b-tetrahydro-3H-[1]benzoxepino[4,5-b][1,4]thiazin-10-yl)-5-chloro-3-methyl-2-pyridinecarboxamide] | 5 | 3 | 90.4
6 | CC#CCOc1cnc2c(Nc3ccc4c(c3)C3(C)N=C(N)C(C)(C)S(=O)(=O)C3CCO4)nccc2c1 [Example 182, (4aR,11bR)-N^~10^~-(3-(2-butyn-1-yloxy)-1,7-naphthyridin-8-yl)-3,3,11b-trimethyl-4a,5,6,11b-tetrahydro-3H-[1]benzoxepino[4,5-b][1,4]thiazine-2,10-diamine 4,4-dioxide] | 14 | 3 | > 400
7 | Cc1cc(Cl)cnc1C(=O)Nc1ccc2c(c1)[C@@]1(C)N=C(N)C(C)(C)S(=O)(=O)[C@H]1CC(C)(C)O2 [Example 184, N-((4aS,11bR)-2-amino-3,3,6,6,11b-pentamethyl-4,4-dioxido-4a,5,6,11b-tetrahydro-3H-[1]benzoxepino[4,5-b][1,4]thiazin-10-yl)-5-chloro-3-methyl-2-pyridinecarboxamide] | 4 | 8 | 403
8 | COc1ccc(C(=O)Nc2ccc3c(c2)[C@@]2(C)N=C(N)C(C)(C)S(=O)(=O)[C@@H]2CCO3)nc1 [Example 185, N-((4aR,11bR)-2-amino-3,3,11b-trimethyl-4,4-dioxido-4a,5,6,11b-tetrahydro-3H-[1]benzoxepino[4,5-b][1,4]thiazin-10-yl)-5-methoxy-2-pyridinecarboxamide] | 13 | 21 | 516
9 | CC1(C)C(N)=N[C@]2(C)c3cc(NC(=O)c4ccc(Cl)cn4)ccc3OCC[C@H]2S1(=O)=O [Example 186, N-((4aR,11bR)-2-amino-3,3,11b-trimethyl-4,4-dioxido-4a,5,6,11b-tetrahydro-3H-[1]benzoxepino[4,5-b][1,4]thiazin-10-yl)-5-chloro-2-pyridinecarboxamide] | 10 | 6 | 279
10 | Cc1cc(OCC(F)(F)F)cnc1C(=O)Nc1ccc2c(c1)[C@@]1(C)N=C(N)C(C)(C)S(=O)(=O)[C@@H]1CCO2 [Example 187, N-((4aR,11bR)-2-amino-3,3,11b-trimethyl-4,4-dioxido-4a,5,6,11b-tetrahydro-3H-[1]benzoxepino[4,5-b][1,4]thiazin-10-yl)-3-methyl-5-(2,2,2-trifluoroethoxy)-2-pyridinecarboxamide] | 64 | 16 | 1240
11 | CC1(C)C(N)=N[C@]2(C)c3cc(NC(=O)c4ccc(C#CC5CC5)cn4)ccc3OCC[C@H]2S1(=O)=O [Example 193, N-((4aR,11bR)-2-amino-3,3,11b-trimethyl-4,4-dioxido-4a,5,6,11b-tetrahydro-3H-[1]benzoxepino[4,5-b][1,4]thiazin-10-yl)-5-(cyclopropylethynyl)-2-pyridinecarboxamide] | 6 | 4 | 995
12 | CC1(C)C(N)=N[C@]2(C)c3cc(NC(=O)c4ccc(OC(F)F)cn4)ccc3OCC[C@H]2S1(=O)=O [Example 194, N-((4aR,11bR)-2-amino-3,3,11b-trimethyl-4,4-dioxido-4a,5,6,11b-tetrahydro-3H-[1]benzoxepino[4,5-b][1,4]thiazin-10-yl)-5-(difluoromethoxy)-2-pyridinecarboxamide] | 3 | 8 | 652

Next, values leading:

Row | IC50 [1] [nM] | IC50 [2] [nM] | IC50 [3] [µM] | Structure (SMILES)
13 | 0.8 | 1 | 124 | Cc1cc(Cl)cnc1C(=O)Nc1ccc2c(c1)[C@@]1(C)N=C(N)C(C)(C)S(=O)(=O)[C@H]1C[C@@H](C)O2 [Example 181, N-((4aS,6R,11bR)-2-amino-3,3,6,11b-tetramethyl-4,4-dioxido-4a,5,6,11b-tetrahydro-3H-[1]benzoxepino[4,5-b][1,4]thiazin-10-yl)-5-chloro-3-methyl-2-pyridinecarboxamide]
14 | 3 | 9 | 44 | Cc1cc(Cl)cnc1C(=O)Nc1ccc2c(c1)[C@@]1(C)N=C(N)C(C)(C)S(=O)(=O)[C@H]1C[C@H](C)O2 [Example 183, N-((4aS,6S,11bR)-2-amino-3,3,6,11b-tetramethyl-4,4-dioxido-4a,5,6,11b-tetrahydro-3H-[1]benzoxepino[4,5-b][1,4]thiazin-10-yl)-5-chloro-3-methyl-2-pyridinecarboxamide]
15 | 3 | 8 | 1550 | Cc1cc(C(F)(F)F)cnc1C(=O)Nc1ccc2c(c1)[C@@]1(C)N=C(N)C(C)(C)S(=O)(=O)[C@@H]1CCO2 [Example 188, N-((4aR,11bR)-2-amino-3,3,11b-trimethyl-4,4-dioxido-4a,5,6,11b-tetrahydro-3H-[1]benzoxepino[4,5-b][1,4]thiazin-10-yl)-3-methyl-5-(trifluoromethyl)-2-pyridinecarboxamide]
16 | 1 | 3 | 191 | Cc1cc(Cl)cnc1C(=O)Nc1ccc2c(c1)[C@@]1(C)N=C(N)C(C)(C)S(=O)(=O)[C@@H]1C[C@H](C)O2 [Example 189, N-((4aR,6S,11bR)-2-amino-3,3,6,11b-tetramethyl-4,4-dioxido-4a,5,6,11b-tetrahydro-3H-[1]benzoxepino[4,5-b][1,4]thiazin-10-yl)-5-chloro-3-methyl-2-pyridinecarboxamide]
17 | 2 | 5 | 441 | Cc1cc(Cl)cnc1C(=O)Nc1ccc2c(c1)[C@@]1(C)N=C(N)C(C)(C)S(=O)(=O)[C@@H]1CC(C)(C)O2 [Example 190, N-((4aR,11bR)-2-amino-3,3,6,6,11b-pentamethyl-4,4-dioxido-4a,5,6,11b-tetrahydro-3H-[1]benzoxepino[4,5-b][1,4]thiazin-10-yl)-5-chloro-3-methyl-2-pyridinecarboxamide]
18 | 0.3 | 0.7 | 624 | CC#CCOc1cnc(C(=O)Nc2ccc3c(c2)[C@@]2(C)N=C(N)C(C)(C)S(=O)(=O)[C@@H]2CCO3)cn1 [Example 191, N-((4aR,11bR)-2-amino-3,3,11b-trimethyl-4,4-dioxido-4a,5,6,11b-tetrahydro-3H-[1]benzoxepino[4,5-b][1,4]thiazin-10-yl)-5-(2-butyn-1-yloxy)-2-pyrazinecarboxamide]
19 | 1 | 2 | 434 | Cc1cc(C#N)cnc1C(=O)Nc1ccc2c(c1)[C@@]1(C)N=C(N)C(C)(C)S(=O)(=O)[C@@H]1CCO2 [Example 192, N-((4aR,11bR)-2-amino-3,3,11b-trimethyl-4,4-dioxido-4a,5,6,11b-tetrahydro-3H-[1]benzoxepino[4,5-b][1,4]thiazin-10-yl)-5-cyano-3-methyl-2-pyridinecarboxamide]
